Here are results for ten molecules from US11072632B2, “Inhibitors of 17β-HSD1, 17β-HSD3 and 17β-HSD10” (UNIVERSITÉ LAVAL, priority 2011, dated 2021).

The subject of assay [1] is ovariectomized (OVX) mice. The assay is described as follows: In vivo estrogenic activity (uterotrophic assay) in OVX mice. More on the design: species or system mouse. Conditions: for increase in uterine weight vs. control group: 100 μg/kg s.c. BID, 7 days. The protocol:
The mice were fed rodent chow and tap water ad libitum. The animals were ovariectomized (OVX) under isoflurane-anaesthesia via bilateral flank incisions and randomly assigned to groups (5 animals by group). Mice in the OVX control group received the vehicle alone (8% ethanol-0.4% methylcellulose) during the 7-day period. The possible estrogenic activity of tested compounds was evaluated after their administration by subcutaneous (s.c.) injection [1, 10 and 100 μg/kg, s.c., twice daily (BID)] as suspension in 8% ethanol-0.4% methylcellulose to OVX female mice for 7 days. On day 8, the mice were sacrificed by cervical dislocation. The uteri and vagina were rapidly removed, freed from fat and connective tissue and weighed. Results are the means±SEM of 5 mice per group.

Assay [2] deals with androgen-sensitive (AR+) Shionogi cells. As to the kind of experiment: Proliferative (androgenic) activity on androgen-sensitive Shionogi cells. Format: cell-based. Particulars: for cell proliferation, % of basal: basal (control) 100%; for proliferative (androgenic) effect: 0.1 and 1 μM. The protocol: The proliferative (androgenic) activity was determined using androgen-sensitive Shionogi cells following a known literature procedure.^54 Inhibitors and reference compounds were tested at two concentrations (0.1 and 1.0 μM). The androgenicity was reported as % cell proliferation (versus the control). The basal cell proliferation (control) was fixed at 100%.

Assay [3] concerns the target T1, 17β-HSD3 (Homo sapiens, UniProt P37058).
T1 construct: expressed in transfected cells; host or cells: HEK-293 (homogenate)
T1 sequence (P37058 1-310): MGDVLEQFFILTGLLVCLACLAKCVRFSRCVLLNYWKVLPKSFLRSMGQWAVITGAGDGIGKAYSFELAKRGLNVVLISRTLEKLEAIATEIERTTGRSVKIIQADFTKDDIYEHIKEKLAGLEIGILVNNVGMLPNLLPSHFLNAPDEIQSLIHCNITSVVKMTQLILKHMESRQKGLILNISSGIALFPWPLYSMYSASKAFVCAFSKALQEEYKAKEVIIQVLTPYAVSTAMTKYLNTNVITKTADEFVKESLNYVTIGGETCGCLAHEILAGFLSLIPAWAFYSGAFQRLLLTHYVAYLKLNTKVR
The assay is described as follows: Inhibition of 17β-HSD3 in homogenated HEK-293 cells. Type of assay: biochemical.

Assay [4] deals with T1, 17β-HSD3. The assay is described as follows: Inhibition of 17β-HSD3 in intact HEK-293 cells. Type of assay: cell-based.
For assay [5], the target named is T2, 17β-HSD10 (Homo sapiens, UniProt Q99714).
T2 construct: expressed in transfected cells
T2 sequence (Q99714 1-261): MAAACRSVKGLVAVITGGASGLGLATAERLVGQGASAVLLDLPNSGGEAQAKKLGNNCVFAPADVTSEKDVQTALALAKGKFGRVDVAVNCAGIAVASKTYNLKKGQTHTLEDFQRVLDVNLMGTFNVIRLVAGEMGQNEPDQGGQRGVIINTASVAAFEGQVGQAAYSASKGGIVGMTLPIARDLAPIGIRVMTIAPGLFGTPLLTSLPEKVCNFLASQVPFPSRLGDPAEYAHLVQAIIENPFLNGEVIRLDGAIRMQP
As to the kind of experiment: Inhibition of 17β-HSD10 in stably transfected HEK-293 whole cells (E2 into E1). Format: cell-based. Particulars: [14C]-E2 (1 μM) into [14C]-E1, intact HEK-293 cells, 1 μM.

Assay [6] has as its system MCF-7 cells. As to the kind of experiment: Estrogenic activity in MCF-7 cells. On Estrogenicity (0.1 μM): key: — = no; + = weak; ++ = medium to strong. On Estrogenicity (1.0 μM): key: — = no; + = weak; ++ = medium to strong. Type of assay: cell-based, human. Conditions: 7 days; for estrogenic activity on MCF-7 cells (FIG. 1): concentrations up to 5 μM. How it is done: MCF-7 cells were seeded with medium supplemented with insulin (50 ng/mL) and 5% dextran-coated charcoal treated FBS rather than 10% FBS to remove remaining hormones. Aliquots (100 μL) of the cell suspension were seeded in 96-well plates (3000 cells/well). […] Cells were grown either in the absence or presence of the compounds over a period of 7 days. Quantification of cell growth was determined by using the CellTiter 96®Aqueous Solution Cell Proliferation Assay (Promega, Nepean, ON, Canada) following the manufacturer's instructions. To determine the proliferative (estrogenic) activity, the cells were grown in the absence (control fixed as 100%) or presence of the tested compounds at the indicated concentrations.

Assay [7] concerns the target T3, 17β-HSD1 (Homo sapiens, UniProt P14061).
T3 construct: endogenous in cells; host or cells: T-47D
T3 sequence (P14061 1-328): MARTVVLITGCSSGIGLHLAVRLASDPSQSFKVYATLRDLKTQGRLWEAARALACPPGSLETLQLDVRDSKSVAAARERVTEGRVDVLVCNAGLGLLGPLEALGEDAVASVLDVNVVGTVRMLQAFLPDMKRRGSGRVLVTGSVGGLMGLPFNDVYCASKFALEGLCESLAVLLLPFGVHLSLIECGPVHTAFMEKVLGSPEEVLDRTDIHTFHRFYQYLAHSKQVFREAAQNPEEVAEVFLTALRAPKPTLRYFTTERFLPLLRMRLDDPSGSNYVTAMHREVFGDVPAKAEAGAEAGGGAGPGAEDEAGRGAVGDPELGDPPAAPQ
As to the kind of experiment: Inhibition of 17β-HSD1 in T-47D intact cells (E1 into E2). Format: cell-based. Particulars: T47D; for inhibition at 1 µM: read-out: Inhibition (1 μM); for inhibition at 0.01 µM: read-out: Inhibition % (0.01 μM). The procedure, abridged:
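Intact T-47D cells in medium with insulin and 5% charcoal-stripped FBS were incubated with inhibitor (0.1% ethanol) and 60 nM [14C]-estrone, in triplicate. Steroids were ether-extracted and separated by TLC, and [14C]-E1 to E2 conversion was quantified by radioimaging.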

Where [8] appears, read: growth of estrogen-starved MCF-7 cells.
Setting [9] is: Table 2 (17β-HSD1), [14C]-E1 60 nM, T-47D intact cells, read-out: Inhibition (0.1 μM).
Where [10] appears, read: Table 2 (17β-HSD1), [14C]-E1 60 nM, T-47D intact cells.
The mark [11] stands for this setting: [14C]-E1 (60 nM) into [14C]-E2, T-47D intact cells.
[12] abbreviates: [14C]-E1 (60 nM) into [14C]-E2, T-47D intact cells, read-out: Inhibition % (0.1 μM).

“And” between values parts separate entries of the source, which are not always exact repeats. Equal entries are not always repeated. Where two headings read alike, the source gives them in different places.

In the case of `C[C@]12CC[C@@H]3c4ccc(O)cc4CC[C@H]3[C@@H]1CC[C@H]2O` [17α-E2 (2), 17α-estradiol], the “increase in uterine weight vs. control group” value (“increase” below) in assay [1] is given as 3.6 fold.
For the molecule `C[C@@]12CC[C@@H]3c4ccc(O)cc4CC[C@H]3[C@@H]1CC[C@H]2O` [18-epi-17α-E2 (4), (13α,17α)-estra-1(10),2,4-triene-3,17-diol], the “increase” value in assay [1] worked out at 2.6 fold.
For `C[C@@]12CC[C@@H]3c4ccc(O)cc4CC[C@H]3[C@@H]1CC[C@@H]2O` [18-epi-17β-E2 (3), (13α,17β)-estra-1(10),2,4-triene-3,17-diol], in assay [1], the “increase” value stood at 1.5 fold. In addition, in assay [1] (uterus and vagina, OVX mice), the uterotrophic activity entry is “no significant uterotrophic activity”.
In the case of `C[C@]12CC[C@](O)(Cc3ccccc3)C[C@@H]1CC[C@@H]1[C@@H]2CC[C@]2(C)C(=O)CC[C@@H]12` [CS-213, 3β-benzyl-3α-hydroxy-5α-androstan-17-one, reference compound], the “cell proliferation, % of basal” value in assay [2] (0.1 μM) was found to be 225%; in assay [2] (1 μM), 396%.
Take `CCN(Cc1ccccc1)C[C@@]1(O)CC[C@@]2(C)[C@@H](CC[C@@H]3[C@@H]2CC[C@]2(C)C(=O)CC[C@@H]32)C1` [Compound 7a, (3α,5α)-3{[benzyl(ethyl)amino]methyl}3-hydroxyandrostan-17-one]: the inhibition at 0.1 µM came to 85% in assay [3] (Table 2 (17β-HSD3), 0.1 μM, read-out: Homo (%) (0.1 μM)) and 86% in assay [4] (HEK293, 1 h, Table 2 (17β-HSD3), 0.1 μM, read-out: Intact cells (%) (0.1 μM)). Besides, the inhibition at 1 µM worked out at 90% in assay [3] (Table 2 (17β-HSD3), 1 μM, read-out: Homo (%) (1 μM)) and 94% in assay [4] (HEK293, 1 h, Table 2 (17β-HSD3), 1 μM, read-out: Intact cells (%) (1 μM)). In addition, the inhibition at 0.01 µM in assay [3] (Table 2 (17β-HSD3), [14C]-Δ4-dione 50 nM into [14C]-T, 0.01 μM, read-out: Homo (%) (0.01 μM)) worked out at 42%. In addition, the “cell proliferation, % of basal” value in assay [2] (0.1 μM) turned out to be 292%; in assay [2] (1 μM) it was 314%.
The term IC50 denotes the concentration that gives 50% inhibition. For the molecule `CC1CN(S(=O)(=O)c2ccccc2C(F)(F)F)C(C)CN1CC1(O)CCC2(C)C(CCC3C4CCC(=O)C4(C)CCC32)C1` (stereo not drawn) [Compound 15b, (3α,5α)-3-{[(2ξ,5ξ)-2,5-dimethyl-4-{[2-(trifluoromethyl)phenyl]sulfonyl}piperazin-1-yl]methyl}-3-hydroxyandrostan-17-one], the “Homo (%) (0.01 μM)” value in assay [3] (Table 3, 0.01 μM) turned out to be 55%. Further, in assay [3] (Table 3, 0.1 μM), the “Homo (%) (0.1 μM)” value was determined as 92%. Moreover, the “Inhibition (%) at 1 μM” value in assay [5] came to 30%. Besides, the “Intact cells (%) (0.1 μM)” value in assay [4] (Table 3, 0.1 μM) came out at 84%. In addition, the IC50 in assay [4] (intact HEK-293 cells overexpressing 17β-HSD3, [14C]-Δ4-dione 50 nM) was 6 nM and 5 nM. In assay [4] (ratio of IC50 values), the “fold better inhibitor than reference compound 5” value came to 8 fold and the “fold better than unlabelled Δ4-dione used as inhibitor” value stood at 56 fold. For the same molecule, in assay [2], the “proliferative (androgenic) effect” value was “did not stimulate the proliferation of AR^+ cells”.
With `C[C@]12CC[C@@]3(C[C@@H]1CC[C@@H]1[C@@H]2CC[C@]2(C)C(=O)CC[C@@H]12)CN(Cc1ccccc1)C(=O)O3` [Compound 17a, (3R,5S,8R,9S,10S,13S,14S)-3′-benzyl-10,13-dimethyltetradecahydro-2′H spiro[cyclopenta[α]phenanthrene-3,5′-[1,3]oxazolidine]-2′,17(2H)-dione], the inhibition at 0.01 µM in assay [3] (read-out: Homo (%) (0.01 μM), Table 4, 0.01 μM) was found to be 21%. Besides, the inhibition at 0.1 µM in assay [3] (read-out: Homo (%) (0.1 μM), Table 4, 0.1 μM) turned out to be 86%; in assay [4] (HEK293, 1 h, read-out: Intact cells (%) (0.1 μM), Table 4, 0.1 μM) it was 44%. Also, the inhibition at 1 µM in assay [3] (read-out: Homo (%) (1.0 μM), Table 4, 1.0 μM) is 93%. Besides, the “proliferative (androgenic) effect” value in assay [2] is recorded as “did not stimulate the proliferation of AR^+ cells”.
As for `C[C@]12CC[C@@H]3c4ccc(C(N)=O)cc4CC[C@H]3[C@@H]1C[C@H](Cc1cccc(C(N)=O)c1)[C@@H]2O` [Compound 61, (16β,17β)-16-(3-carbamoylbenzyl)-17-hydroxyestra-1,3,5(10)-triene-3-carboxamide], the “Estrogenicity (1.0 μM)” value in assay [6] (setting [8]) is reported as “++”. The inhibition at 0.1 µM in assay [7] (setting [9]) amounted to 3%. For the same molecule, the inhibition at 1 µM in assay [7] (setting [10]) was 23%.
Regarding `C[C@]12CC[C@@H]3c4ccc(CO)cc4CC[C@H]3[C@@H]1C[C@H](Cc1cccc(C(N)=O)c1)[C@@H]2O` [II, 3-{[(16β,17β)-17-hydroxy-3-(hydroxymethyl)estra-1,3,5(10)-trien-16-yl]methyl}benzamide], the “estrogenic activity on MCF-7 cells (FIG. 1)” value in assay [6] is listed as “significant estrogenic activity”. In addition, the “Estrogenicity (1.0 μM)” value in assay [6] (setting [8]) was “+”. Further, the inhibition at 0.1 µM in assay [7] (setting [9]) was 56%; in assay [7] (setting [12]), 37%. In assay [7] (setting [10]), the inhibition at 1 µM came out at 73%. Besides, in assay [7] (setting [11]), the inhibition at 0.01 µM was 14%.
As to `C[C@]12CC[C@@H]3c4ccc(CCO)cc4CC[C@H]3[C@@H]1CC(Cc1cccc(C(N)=O)c1)[C@@H]2O` (stereo partly drawn) [IV, 3-{[(17β)-17-hydroxy-3-(2-hydroxyethyl)estra-1(10),2,4-trien-16-yl]methyl}benzamide], the “estrogenic activity on MCF-7 cells (FIG. 1)” value in assay [6] is given as “completely removed any estrogenic activity”. For the same molecule, the “Estrogenicity (0.1 μM)” value in assay [6] (growth of estrogen-starved MCF-7 cells, 0.1 μM) is “+”. Further, the “Estrogenicity (1.0 μM)” value in assay [6] (setting [8]) was “++”. Further, the figures for the inhibition at 0.1 µM in assay [7] (setting [9]) and in assay [7] (setting [12]) were 19% and 17%, respectively. In addition, the inhibition at 1 µM in assay [7] (setting [10]) was 57%. In addition, the inhibition at 0.01 µM in assay [7] (setting [11]) came to 7%.
